Experiments:
Format in all cases: toxicity, cell-based
HEK-293T = assay: Incucyte cell viability with HEK293T; details: human, 10 µM, compound concentration 10 uM
U2OS = assay: Incucyte cell viability with U2OS; details: human, 10 µM, compound concentration 10 uM
Fibroblast = assay: Incucyte cell viability with human fibroblast; details: 10 µM, compound concentration 10 uM
Note: unitless GR value; below 1 slowed growth and below 0 cell loss.

Row | Compound | Growth Rate (HEK-293T; 6 h, replicate number 1) | Growth Rate (HEK-293T; 6 h, replicate number 2) | Growth Rate (HEK-293T; 12 h, replicate number 1) | Growth Rate (HEK-293T; 12 h, replicate number 2) | Growth Rate (HEK-293T; 18 h, replicate number 1) | Growth Rate (HEK-293T; 18 h, replicate number 2) | Growth Rate (HEK-293T; 24 h, replicate number 1) | Growth Rate (HEK-293T; 24 h, replicate number 2) | Growth Rate (U2OS; 6 h, replicate number 1) | Growth Rate (U2OS; 12 h, replicate number 1) | Growth Rate (U2OS; 12 h, replicate number 2) | Growth Rate (U2OS; 18 h, replicate number 1) | Growth Rate (U2OS; 18 h, replicate number 2) | Growth Rate (U2OS; 24 h, replicate number 1) | Growth Rate (U2OS; 24 h, replicate number 2) | Growth Rate (Fibroblast; 6 h, replicate number 2) | Growth Rate (Fibroblast; 12 h, replicate number 2) | Growth Rate (Fibroblast; 18 h, replicate number 2) | Growth Rate (U2OS; 0 h, replicate number 1) | Growth Rate (Fibroblast; 6 h, replicate number 1) | also measured
1 | Cc1cn([C@@H](C)CC#N)c(=O)c2cc(Cn3nc(C(F)F)cc3Cl)nn12 | 0.53 | 0.84 | 0.72 | 0.81 | 0.89 | 0.77 | 0.92 | 0.81 | 0.19 | 0.51 | 0.71 | 0.6 | 0.88 | 0.73 | 0.78 | 0.71 | 0.66 | 0.99 | – | – | Growth Rate (HEK-293T; 0 h, replicate number 2): 0.77; Growth Rate (Fibroblast; 24 h, replicate number 1): 0.85
2 | Cc1ccc(S(=O)(=O)O)cc1.Cn1cc(-c2ccc(F)c(C(F)(F)F)c2)nc1C1CCN(c2ncnc3[nH]ncc23)CC1 | – | – | – | – | – | – | – | 0.9 | – | – | – | – | – | – | – | – | – | – | 0.87 | -1 | Growth Rate (HEK-293T; 0 h, replicate number 1): 0.72; Growth Rate (HEK-293T; 0 h, replicate number 2): -0.63; Growth Rate (U2OS; 0 h, replicate number 2): -1; Growth Rate (Fibroblast; 0 h, replicate number 1): 0.54; Growth Rate (Fibroblast; 0 h, replicate number 2): -0.97
3 | CC(C)c1ccc(/C=N/NC(=O)c2ccc(O)cc2)cc1 | 0.39 | 0.04 | 0.85 | 0.36 | 0.85 | 0.58 | 0.81 | 0.63 | – | – | – | – | – | – | 0.98 | 0.53 | 0.42 | 0.57 | -0.47 | -0.99 | Growth Rate (HEK-293T; 0 h, replicate number 1): 0.78; Growth Rate (U2OS; 0 h, replicate number 2): -0.95; Growth Rate (Fibroblast; 24 h, replicate number 2): 0.46
4 | CS(=O)(=O)CCNCc1ccc(-c2ccc3ncnc(Nc4ccc(OCc5cccc(F)c5)c(Cl)c4)c3c2)o1 [LAPATINIB] | – | 0.95 | – | 0.94 | – | 0.95 | – | 0.87 | 0.66 | 0.78 | 0.92 | 0.86 | 0.99 | 0.9 | 0.98 | 0.69 | 0.65 | 0.7 | 0.96 | -0.42 | Growth Rate (HEK-293T; 0 h, replicate number 1): 0.86; Growth Rate (U2OS; 6 h, replicate number 2): 0.93; Growth Rate (Fibroblast; 0 h, replicate number 1): 0.88
5 | Cn1cc(-c2ccc3occ(-c4cccc(-c5ccncc5)c4)c3n2)cn1 | -0.45 | -0.34 | -0.46 | 0 | -0.15 | 0.33 | 0.35 | 0.52 | -0.24 | 0.6 | 0.51 | 0.65 | 0.73 | 0.7 | 0.87 | -0.75 | 0.4 | 0.54 | – | – | Growth Rate (U2OS; 0 h, replicate number 2): 0.89; Growth Rate (U2OS; 6 h, replicate number 2): 0.44; Growth Rate (Fibroblast; 0 h, replicate number 1): 0.22; Growth Rate (Fibroblast; 12 h, replicate number 1): -0.8; Growth Rate (Fibroblast; 18 h, replicate number 1): 0.07; Growth Rate (Fibroblast; 24 h, replicate number 1): 0.25; Growth Rate (Fibroblast; 24 h, replicate number 2): 0.73
6 | C[C@@H]1COCCN1c1cc(=O)n2c(n1)N(Cc1cncc(Cl)c1)[C@H](C(F)(F)F)CC2 | -0.3 | -0.11 | 0.15 | 0.44 | 0.39 | 0.54 | 0.39 | 0.45 | 0.61 | 0.92 | 0.89 | 0.87 | 0.95 | 0.73 | – | -0.75 | 0.29 | – | 0.01 | 0.36 | Growth Rate (Fibroblast; 0 h, replicate number 2): -0.86; Growth Rate (Fibroblast; 12 h, replicate number 1): 0.72; Growth Rate (Fibroblast; 18 h, replicate number 1): 0.92; Growth Rate (Fibroblast; 24 h, replicate number 1): 0.83
